Test results: US20200181597A1, “Composition and Application of Arginine-depleting Agents for Cancer, Obesity, Metabolic Disorders, and Related Complications and Comorbidities” (THE HONG KONG POLYTECHNIC UNIVERSITY, priority 2018, published 2020)

What was measured:
MCF-7 cancer cells = assay: cells; type: cell-based, human; settings: Homo sapiens
Procedure: (§1) Breast cancer cell lines (e.g. human MCF-7 and MDA-MB-231 cells) were used in these studies. Cancer cells (5×10^3 cells) were seeded in 96-well plates (TPP) with […] complete medium. The plates were incubated in incubator overnight and the cells were allowed to adhere to the plates. […] Each dosage was triplicated in 3 wells to obtain the average change of cell viability. […] The plates were put back into the incubator and further incubated for 4 h. To dissolve the insoluble compound, formazan, formed by MTT, 100 μl of 10% SDS in 0.01 M HCl was added. The plates were incubated at 37° C. overnight. The color change was measured by spectrophotometer at 570 nm. Control set up (without any drug) was used as base to calculate percentage of cell viability which was used to plot the dose response curve by the software Prism 6.0 (GraphPad) to find the IC50 values. […] CalcuSyn software (Biosoft) was used for calculating the CI values.

[1] = system: MDA-MB-231 breast cancer cells; assay: cells; type: cell-based, human; settings: Homo sapiens
Procedure: as §1

HT29 = assay: cells; settings: Homo sapiens, HT-29, 72 h
Procedure: (§2) The in vitro efficacy of ABD and rhArg fusion protein was tested on human colon cancer cell lines. Human colon cancer cell lines (HCT116, LOVO and HT29) were seeded in 96-well plate at densities of 5×10^3 cells/well. After 1 day of incubation, the culture medium was replaced with medium containing different concentrations (2, 0.4, 0.08, 0.016 and 0.0032 U/ml) of N-ABD094-rhArg (SEQ ID NO: 50). MTT assay was conducted at Day 3 [3 days after N-ABD094-rhArg (SEQ ID NO: 50) treatment] to determine the IC50 values. The culture medium was replaced with MTT solution (1 mg/ml) (Invitrogen) and incubated at 37° C. for 4 h. After incubation, MTT solution was replaced with dimethyl sulfoxide (DMSO), and the absorbance at 570 nm was measured with a reference of 650 nm. The cell viability was determined by dividing the absorbance of N-ABD094-rhArg-treated cells by the average absorbance of untreated cells. […] Three independent sets of experiments (n=3) were performed for each cell line.
(§3) MTT assay was conducted at Day 3. Three independent sets of experiments (n=3) were performed for each cell line.
(§4) For drug-combination assay, a non-constant ratio analysis was performed (Hastak et al., 2010, Cancer Res. 70(20):7970-7980). Colon cancer cells were seeded and after 1 day of incubation, the culture medium was replaced with medium containing different concentrations of N-ABD094-rhArg (SEQ ID NO: 50) (2, 0.4, 0.08, 0.016, 0.0032 U/ml) combined with fixed amount of CQ according to its IC50. MTT assay was conducted at Day 3. The combination index (CI) of combined N-ABD094-rhArg (SEQ ID NO: 50) and CQ treatment was analyzed by software CalcuSyn version 2.1. Three independent sets of experiments (n=3) were performed for each cell line.

LOVO = assay: cells; settings: Homo sapiens, LoVo, 72 h
Procedure: as §2, §3, §4

HCT116 [2] = assay: cells; settings: Homo sapiens, HCT-116, 72 h
Procedure: as §2, §3, §4

[3] = molecular target: human serum albumin (HSA), P02768
[4] = molecular target: human serum albumin (HSA) (human, UniProt P02768 25-609); assay: non-denaturing PAGE; 30 pmol HSA titrated with 7.5-120 pmol fusion protein
HeLa = assay: MTT cytotoxicity of ADI, BCA, ADC; type: cell-based, human; settings: 72 h
Procedure: (§5) For cell proliferation assay, cancer cells (5×10^3) in a volume of 100 μL of growth medium were seeded to each well of a 96-well plate and incubated for 24 h. The culture medium was replenished by arginine free medium (AFM) supplemented with different concentrations of arginine, fresh medium containing various concentrations of different arginine depleting enzymes as well as using these enzymes in combination with citrulline. The plate was incubated for an additional 1-3 days at 37° C. in an incubator containing a humidified atmosphere of 95% air and 5% CO2.
(§6) Quantitative cell proliferation assays were performed using MTT (3-[4,5-dimethylthiazol-2-yl]-2,5-diphenyl tetrazolium bromide) assays as widely described elsewhere. The amount of arginine depleting enzyme required to kill 50% of the cells in a culture was defined as IC50.
(§7) The cytotoxicities of arginine deiminase (ADI), bacterial arginase (BCA) and arginine decarboxylase (ADC) were determined in a comparative study in five tumor cell lines: A375, HeLa, BxPC-3, PANC-1, and HCT116.
(§8) Table 6. IC50 and maximum cytotoxicity of ADI, BCA and ADC on five human cancer cell lines. Cells were treated for 72 h before MTT analysis. Data are the mean of three experiments performed in triplicate. IC50 value is defined as the amount of enzyme needed to achieve 50% inhibition of cell viability. Maximum cytotoxicity is expressed as the maximum percentage of nonviable cells achieved by each enzyme. ADI-resistant cells are defined as cells of which more than 50% survive under the maximum dose of ADI tested.

PANC-1 = assay: MTT cytotoxicity of ADI, BCA, ADC; type: cell-based, human; settings: PANC-1, 72 h
Procedure: as §5, §6, §7, §8

BxPC-3 = assay: MTT cytotoxicity of ADI, BCA, ADC; type: cell-based, human; settings: BxPC-3, 72 h
Procedure: as §5, §6, §7, §8

HCT116 [5] = assay: MTT cytotoxicity of ADI, BCA, ADC; type: cell-based, human; settings: HCT116, 72 h
Procedure: as §5, §6, §7, §8

A375 = assay: MTT cytotoxicity of ADI, BCA, ADC; type: cell-based, human; settings: A375, 72 h
Procedure: as §5, §6, §7, §8

[6] = MCF7, read-out: Mean of % Cell Viability
[7] = MDA-MB-231, 72 h, read-out: Mean of % Cell Viability

**Q.** Which results are given for CCN(CC)CCCC(C)Nc1ccnc2cc(Cl)ccc12 (stereo not drawn) [CQ, chloroquine]?
**A.** IC50 (MCF-7 cancer cells; MCF7): 67.2 µM; viability at 0.16 µM (MCF-7 cancer cells; [6]): 96.3%; viability at 0.8 µM (MCF-7 cancer cells; [6]): 85.9%; viability at 4 µM (MCF-7 cancer cells; [6]): 83.3%; viability at 20 µM (MCF-7 cancer cells; [6]): 72.4%; viability at 100 µM (MCF-7 cancer cells; [6]): 40.7%; IC50 ([1]; MDA-MB-231): 73.4 µM; viability at 0.16 µM [1, 7]: 99%; viability at 0.8 µM [1, 7]: 98.1%; viability at 4 µM [1, 7]: 82.2%; viability at 20 µM [1, 7]: 75.2%; viability at 100 µM [1, 7]: 43.2%; IC50 (HT29): 71 µM; IC50 (LOVO): 15 µM; IC50 (HCT116 [2]): > 100 µM

B1: BCA-6xHis-ABD fusion protein BHA (SEQ ID NO: 75) (protein)
chain: MKPISIIGVPMDLGQTRRGPDMGPSAMRYAGVIERLERLHYDIEDLGDIPIGKAERLHEQGDSRLRNLKAVAEANEKLAAAVDQVVQRGRFPLVLGGDHSIAIGTLAGVAKHYERLGVIWYDAHGDVNTAETSPSGNIHGMPLAASLGFGHPALTQIGGYCPKIKPEHVVLIGVRSLDEGEKKFIREKGIKIYTMHEVDRLGMTRVMEETIAYLKERTDGVHLSLDLDGLDPSDAPGVGTPVIGGLTYRESHLAMEMLAEAQIITSAEFVEVNPILDERNKTASVAVALMGSLFGEKLMHHHHHHAQHDEAVDANSLAEAKVLANRELDKYGVSDYYKNLINNAKTVEGVKALIDEILAALP
**Q.** Which “specific activity (arginine catabolic activity, DAMO assay) at BHA:HSA mole ratios 1:10, 1:5, 1:1, 5:1 and 10:1” value [3] does the source give for B1 here?
**A.** The value was “approximately 200 U/mg”.

B2: N-ABD-rhArg fusion protein (SEQ ID NO: 49) (enzyme)
chain: MHHHHHHDEAVDANSLAEAKVLANRELDKYGVSDYYKNLINNAKTVEGVKALIDEILAALPSGSNNNNNNGSGGMSAKSRTIGIIGAPFSKGQPRGGVEEGPTVLRKAGLLEKLKEQECDVKDYGDLPFADIPNDSPFQIVKNPRSVGKASEQLAGKVAEVKKNGRISLVLGGDHSLAIGSISGHARVHPDLGVIWVDAHTDINTPLTTTSGNLHGQPVSFLLKELKGKIPDVPGFSWVTPCISAKDIVYIGLRDVDPGEHYILKTLGIKYFSMTEVDRLGIGKVMEETLSYLLGRKKRPIHLSFDVDGLDPSFTPATGTPVVGGLTYREGLYITEEIYKTGLLSGLDIMEVNPSLGKTPEEVTRTVNTAVAITLACFGLAREGNHKPIDYLNPPK
notes: It was expressed in E. coli ER2566 and purified on a Ni-IDA column
**Q.** Does B2 bind [4]?
**A.** Result: binds

B3: BCA: bacterial arginase (Bacillus caldovelox arginase) (protein, UniProt P53608 1-299, looked up)
Arginase: MKPISIIGVPMDLGQTRRGVDMGPSAMRYAGVIERLERLHYDIEDLGDIPIGKAERLHEQGDSRLRNLKAVAEANEKLAAAVDQVVQRGRFPLVLGGDHSIAIGTLAGVAKHYERLGVIWYDAHGDVNTAETSPSGNIHGMPLAASLGFGHPALTQIGGYSPKIKPEHVVLIGVRSLDEGEKKFIREKGIKIYTMHEVDRLGMTRVMEETIAYLKERTDGVHLSLDLDGLDPSDAPGVGTPVIGGLTYRESHLAMEMLAEAQIITSAEFVEVNPILDERNKTASVAVALMGSLFGEKLM
**Q.** With B3 as the molecule, how does the IC50 (HeLa) read?
**A.** Its IC50 is 1.25 µg/mL.

**Q.** What about the Maximum cytotoxicity (HeLa) of the same molecule?
**A.** Its Maximum cytotoxicity is 61.14%.

**Q.** What about the IC50 (PANC-1) of the same molecule?
**A.** Its IC50 is 1.81 µg/mL.

**Q.** What about the Maximum cytotoxicity (PANC-1) of the same molecule?
**A.** The Maximum cytotoxicity was 63.01%.

**Q.** What about the IC50 (BxPC-3) of the same molecule?
**A.** The IC50 was 0.44 µg/mL.

**Q.** And the Maximum cytotoxicity (BxPC-3)?
**A.** Its Maximum cytotoxicity is 84.82%.

**Q.** What about the IC50 (HCT116 [5]) of the same molecule?
**A.** Its IC50 is 0.22 µg/mL.

**Q.** What about the Maximum cytotoxicity (HCT116 [5]) of the same molecule?
**A.** Its Maximum cytotoxicity is 81.05%.

**Q.** What about the IC50 (A375) of the same molecule?
**A.** Its IC50 is 0.12 µg/mL.

**Q.** And the Maximum cytotoxicity (A375)?
**A.** The Maximum cytotoxicity was 86.92%.
